Values joined by “and” are separate entries in the source; they are usually repeats but may differ in a detail not shown here. Equal values may be shown once.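 Step 1: Grow cells in 96-well plates. Step 2: Expose to compound for 48 hours at 5 concentrations. Step 3: Interpolate endpoints linearly; if unreached, use highest concentration. GI50 marks 50% less growth. TGI denotes the concentration required for complete inhibition of growth.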
Tests used:
Experiment in all cases: NCI anticancer screen, dose series, 48 h
CAKI-1 renal = tested on: CAKI-1 renal
HCT-116 colon = tested on: HCT-116 colon
HCT-15 colon = tested on: HCT-15 colon
HT29 colon = tested on: HT29 colon
LOX IMVI melanoma = tested on: LOX IMVI melanoma
MCF7 breast = tested on: MCF7 breast
NCI-H23 lung = tested on: NCI-H23 lung
OVCAR-8 ovarian = tested on: OVCAR-8 ovarian
SN12C renal = tested on: SN12C renal
T-47D breast = tested on: T-47D breast

`C=CCNC(=O)CN(CC(=O)OC)C1CCCCC1N(CC(=O)OC)CC(=O)OC` (stereo not drawn) was tested, and the TGI (CAKI-1 renal) was > 100 µM, the TGI (HCT-116 colon) was > 100 µM and the TGI (HCT-15 colon) was > 100 µM. For the same molecule, the TGI (HT29 colon) was > 100 µM, the TGI (LOX IMVI melanoma) was > 100 µM and the TGI (MCF7 breast) was > 100 µM. The TGI (NCI-H23 lung) was > 100 µM, the TGI (OVCAR-8 ovarian) was > 100 µM and the TGI (SN12C renal) was > 100 µM. For the same molecule, the TGI (T-47D breast) was > 100 µM.
For `O=C(O)C12CC3CC(C1)C2C=C3P(=O)(O)O` (stereo not drawn), the TGI (CAKI-1 renal) was > 100 µM, the TGI (HCT-116 colon) was > 100 µM and the TGI (HCT-15 colon) was > 100 µM. The TGI (HT29 colon) was > 100 µM, the TGI (LOX IMVI melanoma) was > 100 µM and the TGI (NCI-H23 lung) was > 100 µM. For the same molecule, the TGI (OVCAR-8 ovarian) was > 100 µM and the TGI (SN12C renal) was > 100 µM.
For `COc1cc(/C=C/C2=C(C#N)C(=O)OC2(C)C)ccc1O`, the TGI (CAKI-1 renal) was > 100 µM, the TGI (HCT-116 colon) was > 100 µM and the TGI (HCT-15 colon) was 93.8 µM. For the same molecule, the TGI (HT29 colon) was > 100 µM, the TGI (LOX IMVI melanoma) was 44.2 µM and the TGI (NCI-H23 lung) was > 100 µM. The TGI (OVCAR-8 ovarian) was > 100 µM and the TGI (SN12C renal) was > 100 µM.
For `Nc1n[nH]c(CCCCCCCc2nc(N)n[nH]2)n1`, the TGI (HCT-116 colon) was > 100 µM, the TGI (HCT-15 colon) was > 100 µM and the TGI (HT29 colon) was > 100 µM. For the same molecule, the TGI (LOX IMVI melanoma) was > 100 µM, the TGI (NCI-H23 lung) was > 100 µM and the TGI (SN12C renal) was > 100 µM.
In the case of `Cc1c(C2=NN=C(N=Nc3c(O)cccc3O)/C2=C/c2ccccc2)c(=O)n(-c2ccccc2)n1C`, the TGI (CAKI-1 renal) is reported as > 100 µM, the TGI (HCT-116 colon) is reported as > 100 µM and the TGI (HCT-15 colon) is reported as > 100 µM. The TGI (HT29 colon) was > 100 µM, the TGI (LOX IMVI melanoma) was > 100 µM and the TGI (MCF7 breast) was > 100 µM. For the same molecule, the TGI (NCI-H23 lung) was > 100 µM, the TGI (OVCAR-8 ovarian) was > 100 µM and the TGI (SN12C renal) was > 100 µM.
`CC(C)=CC(=O)OC1C2C(C)=CC(O)C(O)C2(C)C2C3(O)OCC24C(CC(=O)OC14)C(C)C3O` (stereo not drawn) showed a TGI (CAKI-1 renal) of 13.9 µM, a TGI (HCT-116 colon) of 0.381 µM and a TGI (HCT-15 colon) of 6.84 µM. The TGI (HT29 colon) was 0.836 µM, the TGI (LOX IMVI melanoma) was 0.325 µM and the TGI (MCF7 breast) was 0.107 µM. It also gave a TGI (NCI-H23 lung) of 0.387 µM, a TGI (OVCAR-8 ovarian) of 0.82 µM and a TGI (SN12C renal) of 6.9 µM.
For `Cc1cn(C2CC(O)C(Cn3nncc3Cn3ncc(=O)[nH]c3=O)O2)c(=O)[nH]c1=O` (stereo not drawn), the TGI (CAKI-1 renal) was > 100 µM, the TGI (HCT-116 colon) was > 100 µM and the TGI (HCT-15 colon) was > 100 µM. The TGI (LOX IMVI melanoma) was > 100 µM, the TGI (MCF7 breast) was > 100 µM and the TGI (NCI-H23 lung) was > 100 µM. The TGI (OVCAR-8 ovarian) was > 100 µM, the TGI (SN12C renal) was > 100 µM and the TGI (T-47D breast) was > 100 µM.
`Cc1cccc(CNc2ncnc3[nH]ncc23)c1` was tested, and the TGI (CAKI-1 renal) was > 100 µM, the TGI (HCT-116 colon) was > 100 µM and the TGI (HCT-15 colon) was > 100 µM. For the same molecule, the TGI (HT29 colon) was > 100 µM, the TGI (LOX IMVI melanoma) was > 100 µM and the TGI (MCF7 breast) was > 100 µM. The TGI (NCI-H23 lung) was > 100 µM, the TGI (OVCAR-8 ovarian) was > 100 µM and the TGI (SN12C renal) was > 100 µM. The TGI (T-47D breast) was > 100 µM.
For `O=C1c2ccccc2C(=O)c2c1cc1c(c2[N+](=O)[O-])OCO1`, the GI50 (CAKI-1 renal) was 0.556 µM, the TGI (CAKI-1 renal) was 4.51 µM and the GI50 (HCT-116 colon) was 0.641 µM. The TGI (HCT-116 colon) was 4.44 µM, the GI50 (HCT-15 colon) was 2.15 µM and the TGI (HCT-15 colon) was 8.82 µM. For the same molecule, the GI50 (HT29 colon) was 4.24 µM, the TGI (HT29 colon) was 22 µM and the GI50 (LOX IMVI melanoma) was 1.43 µM. For the same molecule, the TGI (LOX IMVI melanoma) was 4.92 µM, the GI50 (MCF7 breast) was 1 µM and the TGI (MCF7 breast) was 7.29 µM. For the same molecule, the GI50 (NCI-H23 lung) was 2.4 µM, the TGI (NCI-H23 lung) was 8.29 µM and the GI50 (OVCAR-8 ovarian) was 1.68 µM. It also gave a TGI (OVCAR-8 ovarian) of 10.3 µM, a GI50 (SN12C renal) of 1.73 µM and a TGI (SN12C renal) of 8.05 µM. The GI50 (T-47D breast) was 0.551 µM and the TGI (T-47D breast) was 6.33 µM.
With `O=C(O)CCCc1ccccc1` the GI50 (CAKI-1 renal) was > 1000 µM, the TGI (CAKI-1 renal) was > 1000 µM and the GI50 (HCT-116 colon) was > 1000 µM. For the same molecule, the TGI (HCT-116 colon) was > 1000 µM, the GI50 (HCT-15 colon) was > 1000 µM and the TGI (HCT-15 colon) was 342 µM and > 1000 µM. For the same molecule, the GI50 (HT29 colon) was 221 µM and > 1000 µM, the TGI (HT29 colon) was > 1000 µM and the GI50 (LOX IMVI melanoma) was 224 µM and > 1000 µM. For the same molecule, the TGI (LOX IMVI melanoma) was 898 µM and > 1000 µM, the GI50 (MCF7 breast) was 160 µM and > 1000 µM and the TGI (MCF7 breast) was > 1000 µM. For the same molecule, the GI50 (NCI-H23 lung) was 377 µM and > 1000 µM, the TGI (NCI-H23 lung) was > 1000 µM and the GI50 (OVCAR-8 ovarian) was 150 µM and 17.3 µM. For the same molecule, the GI50 (SN12C renal) was > 1000 µM, the TGI (SN12C renal) was > 1000 µM and the GI50 (T-47D breast) was 203 µM and > 1000 µM. The TGI (T-47D breast) was > 1000 µM.
For `CCCCCCCCCCCCC(O)C(=O)O` (stereo not drawn), the TGI (CAKI-1 renal) was > 100 µM, the TGI (HCT-116 colon) was > 100 µM and the TGI (HCT-15 colon) was > 100 µM. The TGI (HT29 colon) was > 100 µM, the TGI (LOX IMVI melanoma) was > 100 µM and the TGI (MCF7 breast) was > 100 µM. The TGI (NCI-H23 lung) was > 100 µM, the TGI (OVCAR-8 ovarian) was > 100 µM and the TGI (SN12C renal) was > 100 µM. For the same molecule, the TGI (T-47D breast) was > 100 µM.

Reference: PubChem BioAssay (NCI)
